Experimental data published in PubChem BioAssay AID248 (DTP/NCI, 2004).
“And” between values parts separate entries of the source, which are not always exact repeats. Equal values may be shown once. Inconclusive results and toxic doses are left out. Rule as the data show it: active = T/C of 150% or more; inactive = T/C below 125%.

Test system: L1210 leukemia ip in BDF1 mice, survival T/C
Assay: NCI In Vivo Anticancer Drug Screen. Data for tumor model L1210 Leukemia (intraperitoneal) in B6D2F1 (BDF1) mice
Conditions: endpoint: mean survival time, higher = longer survival
Method in brief: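 Mice bearing the transplanted tumor received compound or vehicle. Survival of the treated group was divided by that of the vehicle-treated control group to give the ratio.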

[1] = dose: 100.0 mg/kg/injection, schedule: Q01DX009 (ip), vehicle: saline with Tween-80
[2] = dose: 100.0 mg/kg/injection, schedule: Q04DX003 (ip), vehicle: saline with Tween-80
[3] = dose: 200.0 mg/kg/injection, schedule: Q01DX009 (ip), vehicle: saline with Tween-80
[4] = dose: 200.0 mg/kg/injection, schedule: Q04DX003 (ip), vehicle: saline with Tween-80
[5] = dose: 400.0 mg/kg/injection, schedule: Q01DX009 (ip), vehicle: saline with Tween-80
[6] = dose: 400.0 mg/kg/injection, schedule: Q04DX003 (ip), vehicle: saline with Tween-80
[7] = dose: 50.0 mg/kg/injection, schedule: Q01DX001 (ip), vehicle: saline
[8] = dose: 100.0 mg/kg/injection, schedule: Q01DX001 (ip), vehicle: saline
[9] = dose: 200.0 mg/kg/injection, schedule: Q01DX001 (ip), vehicle: saline
[10] = dose: 400.0 mg/kg/injection, schedule: Q01DX001 (ip), vehicle: saline
[11] = dose: 100.0 mg/kg/injection, schedule: Q04DX003 (ip), vehicle: Klucel (hydroxypropylcellulose) (HPC)
[12] = dose: 200.0 mg/kg/injection, schedule: Q04DX003 (ip), vehicle: Klucel (hydroxypropylcellulose) (HPC)
[13] = dose: 400.0 mg/kg/injection, schedule: Q04DX003 (ip), vehicle: Klucel (hydroxypropylcellulose) (HPC)

Measured: T/C

CN(C)c1ccc(N=Nc2ccc(C(C)(C)C)cc2)cc1
inactive: [1] 97 % of control | [2] 95 % of control | [3] 94 % of control | [4] 86 % of control | [5] 89 % of control | [6] 96 % of control

CC(=O)OC1C2OC3C=C(C)CCC3(CO)C(C)(C1O)C21CO1 (centres undefined)
inactive: dose: 0.8 mg/kg/injection, schedule: Q01DX009 (ip), vehicle: other 101 % of control | dose: 1.6 mg/kg/injection, schedule: Q01DX009 (ip), vehicle: other 104 % of control | dose: 3.2 mg/kg/injection, schedule: Q01DX009 (ip), vehicle: other 101 % of control | dose: 6.4 mg/kg/injection, schedule: Q01DX009 (ip), vehicle: other 114 % of control | dose: 12.8 mg/kg/injection, schedule: Q01DX009 (ip), vehicle: other 122 % of control | dose: 25.6 mg/kg/injection, schedule: Q01DX009 (ip), vehicle: other 122 % of control

Cc1ccc([N+](=O)[O-])cc1NC(=O)NCCCl
inactive: [2] 90 % of control | [4] 90 % of control | [6] 92 % of control

CCCCCCSc1ccc2c(cc1=O)C(NC(C)=O)CCc1cc(OC)c(OC)c(OC)c1-2 (centres undefined)
inactive: dose: 12.5 mg/kg/injection, schedule: Q04DX002 (ip), vehicle: saline 95 % of control | dose: 25.0 mg/kg/injection, schedule: Q04DX002 (ip), vehicle: saline 95 % of control | dose: 50.0 mg/kg/injection, schedule: Q04DX002 (ip), vehicle: saline 104 % of control

COc1ccc([N+](=O)[O-])cc1NC(=O)C(Cl)Cl
inactive: dose: 100.0 mg/kg/injection, schedule: Q01DX001 (ip), vehicle: carboxymethylcellulose (CMC) 99 % of control | dose: 200.0 mg/kg/injection, schedule: Q01DX001 (ip), vehicle: carboxymethylcellulose (CMC) 100 % of control | dose: 400.0 mg/kg/injection, schedule: Q01DX001 (ip), vehicle: carboxymethylcellulose (CMC) 110 % of control

C/C(C/C=N/N=C(N)N)=N\N=C(N)N
inactive: dose: 15.0 mg/kg/injection, schedule: Q01DX Z (ip), vehicle: water 98 % of control | dose: 30.0 mg/kg/injection, schedule: Q01DX Z (ip), vehicle: water 96 % of control | dose: 60.0 mg/kg/injection, schedule: Q01DX Z (ip), vehicle: water 102 % of control | dose: 120.0 mg/kg/injection, schedule: Q01DX Z (ip), vehicle: water 102 % of control | dose: 120.0 mg/kg/injection, schedule: Q01DX Z (oral), vehicle: water 103 % of control | dose: 240.0 mg/kg/injection, schedule: Q01DX Z (oral), vehicle: water 100 % of control | dose: 480.0 mg/kg/injection, schedule: Q01DX Z (oral), vehicle: water 108 % of control | dose: 960.0 mg/kg/injection, schedule: Q01DX Z (oral), vehicle: water 102 % of control

Cc1ccc(Cl)c(I)c1
inactive: dose: 100.0 mg/kg/injection, schedule: Q04DX002 (ip), vehicle: saline 103 % of control | dose: 200.0 mg/kg/injection, schedule: Q04DX002 (ip), vehicle: saline 103 % of control | dose: 400.0 mg/kg/injection, schedule: Q04DX002 (ip), vehicle: saline 95 % of control

Cc1cc(Cl)ccc1NC(=O)c1ccc(Cl)c(Cl)c1
inactive: [1] 88 % of control | [2] 100 % of control | [3] 93 % of control | [4] 96 % of control | [5] 93 % of control | [6] 94 % of control

O=C(O)CCC(=O)/C=C1/Nc2ccccc2C1=O
inactive: [2] 88 % of control | [4] 90 % of control | [6] 88 % of control

CCCCCCC(C)NCCOC(=O)c1ccc(N)cc1 (centres undefined)
inactive: dose: 38.0 mg/kg/injection, schedule: Q04DX003 (ip), vehicle: other 104 % of control | dose: 75.0 mg/kg/injection, schedule: Q01DX001 (ip), vehicle: other 106 % of control and 98 % of control | dose: 75.0 mg/kg/injection, schedule: Q01DX001 (ip), vehicle: saline 96 % of control and 100 % of control | dose: 75.0 mg/kg/injection, schedule: Q04DX003 (ip), vehicle: other 104 % of control | dose: 150.0 mg/kg/injection, schedule: Q01DX001 (ip), vehicle: other 98 % of control and 93 % of control | dose: 150.0 mg/kg/injection, schedule: Q01DX001 (ip), vehicle: saline 91 % of control

CC(C)(C)C1CCCC(=O)C1 (centres undefined)
inactive: [7] 101 % of control | [8] 89 % of control

CCCCCCCCCCSC#N
inactive: dose: 5.0 mg/kg/injection, schedule: Q01DX001 (ip), vehicle: saline 103 % of control | dose: 10.0 mg/kg/injection, schedule: Q01DX001 (ip), vehicle: saline 97 % of control | dose: 20.0 mg/kg/injection, schedule: Q01DX001 (ip), vehicle: saline 105 % of control | dose: 20.0 mg/kg/injection, schedule: Q01DX009 (ip), vehicle: saline 111 % of control | dose: 20.0 mg/kg/injection, schedule: Q04DX003 (ip), vehicle: saline 100 % of control | dose: 40.0 mg/kg/injection, schedule: Q01DX001 (ip), vehicle: saline 97 % of control | dose: 40.0 mg/kg/injection, schedule: Q01DX009 (ip), vehicle: saline 106 % of control | dose: 40.0 mg/kg/injection, schedule: Q04DX003 (ip), vehicle: saline 100 % of control | dose: 80.0 mg/kg/injection, schedule: Q01DX009 (ip), vehicle: saline 100 % of control | dose: 80.0 mg/kg/injection, schedule: Q04DX003 (ip), vehicle: saline 101 % of control

N=C(N)N=Nc1c(O)[nH]c(=O)[nH]c1=O
inactive: dose: 15.0 mg/kg/injection, schedule: Q01DX Z (ip), vehicle: carboxymethylcellulose (CMC) 98 % of control | dose: 30.0 mg/kg/injection, schedule: Q01DX Z (ip), vehicle: carboxymethylcellulose (CMC) 98 % of control | dose: 60.0 mg/kg/injection, schedule: Q01DX Z (ip), vehicle: carboxymethylcellulose (CMC) 93 % of control | dose: 60.0 mg/kg/injection, schedule: Q01DX Z (oral), vehicle: carboxymethylcellulose (CMC) 110 % of control | dose: 120.0 mg/kg/injection, schedule: Q01DX Z (ip), vehicle: carboxymethylcellulose (CMC) 97 % of control | dose: 120.0 mg/kg/injection, schedule: Q01DX Z (oral), vehicle: carboxymethylcellulose (CMC) 108 % of control | dose: 240.0 mg/kg/injection, schedule: Q01DX Z (oral), vehicle: carboxymethylcellulose (CMC) 104 % of control | dose: 480.0 mg/kg/injection, schedule: Q01DX Z (oral), vehicle: carboxymethylcellulose (CMC) 108 % of control

C/C=C/c1nc2c([nH]1)c(=O)n(C)c(=O)n2C
inactive: [7] 107 % of control | [8] 107 % of control | [9] 104 % of control | [10] 98 % of control

CC(=O)C[n+]1ccccc1
inactive: [8] 106 % of control and 97 % of control | dose: 100.0 mg/kg/injection, schedule: Q01DX009 (ip), vehicle: acetone 96 % of control | [9] 100 % of control and 95 % of control | dose: 200.0 mg/kg/injection, schedule: Q01DX009 (ip), vehicle: acetone 105 % of control | [10] 89 % of control and 97 % of control | dose: 400.0 mg/kg/injection, schedule: Q01DX009 (ip), vehicle: acetone 89 % of control

C(=C/c1ccccc1)/C=N/Nc1ccccc1
inactive: [11] 98 % of control | [12] 95 % of control | [13] 92 % of control

CC1(C)CC(=O)C(C)(C)C(=O)C1
inactive: dose: 6.25 mg/kg/injection, schedule: Q01DX009 (ip), vehicle: saline with Tween-80 103 % of control | dose: 12.5 mg/kg/injection, schedule: Q01DX009 (ip), vehicle: saline with Tween-80 98 % of control | dose: 25.0 mg/kg/injection, schedule: Q04DX003 (ip), vehicle: saline with Tween-80 102 % of control

C=CCNCC(O)c1ccccc1 (centres undefined)
inactive: dose: 25.0 mg/kg/injection, schedule: Q01DX009 (ip), vehicle: Klucel (hydroxypropylcellulose) (HPC) 90 % of control | dose: 50.0 mg/kg/injection, schedule: Q01DX009 (ip), vehicle: Klucel (hydroxypropylcellulose) (HPC) 95 % of control | dose: 100.0 mg/kg/injection, schedule: Q01DX009 (ip), vehicle: Klucel (hydroxypropylcellulose) (HPC) 95 % of control and 103 % of control | [11] 95 % of control | [12] 101 % of control | [13] 95 % of control
